Data from patent US7399868B2, “4-(Heteroaryl-methyl and substituted heteroaryl-methyl)-imidazole-2-thiones acting as alpha2 adrenergic agonists” (Allergan, Inc., priority 2004, dated 2008).

How the values were obtained:
[1] = biological target: T1, alpha2B adrenergic receptor (Homo sapiens, UniProt P18089); assay: Receptor Selection and Amplification Technology (RSAT) assay, alpha2B; assay type: cell-based; conditions: ratio of maximal effect to that of standard full agonist brimonidine (UK14304)
T1 construct: expressed in transfected cells; host or cells: NIH-3T3
T1 sequence (P18089 1-450): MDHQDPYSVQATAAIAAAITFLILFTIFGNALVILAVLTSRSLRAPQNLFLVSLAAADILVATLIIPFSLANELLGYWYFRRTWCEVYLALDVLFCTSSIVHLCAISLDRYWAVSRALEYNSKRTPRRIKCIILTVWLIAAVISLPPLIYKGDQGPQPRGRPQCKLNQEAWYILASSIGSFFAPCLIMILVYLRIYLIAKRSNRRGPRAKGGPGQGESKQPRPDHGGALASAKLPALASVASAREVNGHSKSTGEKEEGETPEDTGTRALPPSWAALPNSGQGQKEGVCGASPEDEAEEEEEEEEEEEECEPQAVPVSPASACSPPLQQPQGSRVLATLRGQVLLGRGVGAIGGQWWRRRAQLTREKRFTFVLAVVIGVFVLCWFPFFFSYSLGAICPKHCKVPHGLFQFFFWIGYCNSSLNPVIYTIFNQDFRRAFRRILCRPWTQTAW
Source text: (§1) The imidazole-2-thione compounds of the invention are agonists of alpha2 adrenergic receptors. […] Al., 1995, Pharmacol. Toxicol. 76, pp. 308-311 (incorporated herein by reference) and is also described below. Another reference pertinent to this assay is Conklin et al. (1993) Nature 363:274-6, also incorporated herein by reference.
(§2) Receptor Selection and Amplification Technology (RSAT) Assay
The RSAT assay measures a receptor-mediated loss of contact inhibition that results in selective proliferation of receptor-containing cells in a mixed population of confluent cells. The increase in cell number is assessed with an appropriate transfected marker gene such as ∃-galactosidase, the activity of which can be easily measured in a 96-well format. Receptors that activate the G protein, Gq, elicit this response. Alpha2 receptors, which normally couple to Gi, activate the RSAT response when coexpressed with a hybrid Gq protein that has a Gi receptor recognition domain, called Gq/i5.
NIH-3T3 cells are plated at a density of 2×10^6 cells in 15 cm dishes and maintained in Dulbecco's modified Eagle's medium supplemented with 10% calf serum. One day later, cells are cotransfected by calcium phosphate precipitation with mammalian expression plasmids encoding p-SV-β-galactosidase (5-10 μg), receptor (1-2 μg) and G protein (1-2 μg). 40 μg salmon sperm DNA may also be included in the transfection mixture. Fresh media is added on the following day and 1-2 days later, cells are harvested and frozen in 50 assay aliquots. Cells are thawed and 100 μl added to 100 μl aliquots of various concentrations of drugs in triplicate in 96-well dishes. Incubations continue 72-96 hr at 37° C. After washing with phosphate-buffered saline, ∃-galactosidase enzyme activity is determined by adding 200 μl of the chromogenic substrate (consisting of 3.5 mM o-nitrophenyl-β-D-galactopyranoside and 0.5% nonidet P-40 in phosphate buffered saline), incubating overnight at 30° C. and measuring optical density at 420 nm. The absorbance is a measure of enzyme activity, which depends on cell number and reflects a receptor-mediated cell proliferation. The efficacy or intrinsic activity is calculated as a ratio of the maximal effect of the drug to the maximal effect of a standard full agonist for each receptor subtype. Brimonidine, also called UK14304, the chemical structure of which is shown below, is used as the standard agonist for the alpha2A, alpha2B and alpha2C receptors.
The results of the RSAT assay with several exemplary compounds of the invention are disclosed in Table 1 above together with the chemical formulas of these examplary compounds. NA stands for “not active” at concentrations less than 10 micromolar.

[2] = tested on: rats with ligated L5 and L6 spinal nerves; assay: Chung model of neuropathic pain (tactile allodynia, von Frey hairs); assay type: in vivo, rat; conditions: 30 min following drug administration, p<0.001 compared to pretreatment
Source text: Alleviation of Chronic Pain
A model in accordance with Kim and Chung 1992, Pain […], pp 355-363 (Chung model), for chronic pain (in particular peripheral neuropathy) involves the surgical ligation of the L5 (and optionally the L6) spinal nerves on one side in experimental animals. Rats recovering from the surgery gain weight and display a level of general activity similar to that of normal rats. However, these rats develop abnormalities of the foot, wherein the hindpaw is moderately everted and the toes are held together. More importantly, the hindpaw on the side affected by the surgery appears to become sensitive to pain from low-threshold mechanical stimuli, such as that producing a faint sensation of touch in a human, within about 1 week following surgery. This sensitivity to normally non-painful touch is called “tactile allodynia” and lasts for at least two months. […]
Tactile allodynia is measured prior to and 30 minutes after drug administration using von Frey hairs that are a series of fine hairs with incremental differences in stiffness. […] The applied force has been calculated to range from 0.41 to 15.1 grams. […] The 50% paw withdrawal threshold is determined using the method of Dixon, W. J., Ann. […] The post-drug threshold is compared to the pre-drug threshold and the percent reversal of tactile sensitivity is calculated based on a normal threshold of 15.1 grams. […]

male Sprague-Dawley rats = assay: Sedative activity (exploratory behavior/locomotor) in rats; assay type: in vivo, rat; conditions: intraperitoneally, up to a dose of 1 mg/kg
Description: To test sedation, six male Sprague-Dawley rats are given up to 3 mg/kg of the test compound in a saline or DMSO vehicle by intraperitoneal injection (i.p.). Sedation is graded 30 minutes following administration of the drug by monitoring locomotor skills as follows.
The Sprague-Dawley rats are weighed and 1 ml/kg body weight of an appropriate concentration (ie. 3 mg/ml for a final dose of 3 mg/kg) drug solution is injected intraperitoneally. Typically the test compound is formulated in approximately 10 to 50% DMSO. The results are compared to controls that are injected with 1 ml/kg saline or 10 to 50% DMSO. Rat activity is then determined 30 minutes after injection of the drug solution. Rats are placed in a dark covered chamber and a digicom analyzer (Omnitech Electronic) quantitates their exploratory behavior for a five-minute period. The machine records each time the rat interrupts an array of 32 photoelectric beams in the X and Y orientation.
Effects on Cardiovascular System

[3] = biological target: T2, alpha2C adrenergic receptor (Homo sapiens, UniProt P18825); assay: Receptor Selection and Amplification Technology (RSAT) assay, alpha2C; assay type: cell-based; conditions: ratio of maximal effect to that of standard full agonist brimonidine (UK14304)
T2 construct: expressed in transfected cells; host or cells: NIH-3T3
T2 sequence (P18825 1-462): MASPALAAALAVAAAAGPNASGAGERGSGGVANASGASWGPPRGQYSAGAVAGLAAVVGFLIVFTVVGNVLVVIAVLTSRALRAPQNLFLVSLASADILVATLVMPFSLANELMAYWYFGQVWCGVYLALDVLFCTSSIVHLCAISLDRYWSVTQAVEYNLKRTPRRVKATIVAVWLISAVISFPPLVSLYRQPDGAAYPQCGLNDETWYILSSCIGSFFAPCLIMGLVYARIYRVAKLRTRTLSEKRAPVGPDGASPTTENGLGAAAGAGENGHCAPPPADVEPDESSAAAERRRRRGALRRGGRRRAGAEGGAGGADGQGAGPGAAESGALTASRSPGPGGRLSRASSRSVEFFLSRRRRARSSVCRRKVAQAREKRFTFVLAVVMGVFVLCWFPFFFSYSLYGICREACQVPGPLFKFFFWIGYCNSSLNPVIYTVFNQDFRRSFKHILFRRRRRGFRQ
Source text: as §1, §2
The RSAT assay measures a receptor-mediated loss of contact inhibition that results in selective proliferation of receptor-containing cells in a mixed population of confluent cells. The increase in cell number is assessed with an appropriate transfected marker gene such as ∃-galactosidase, the activity of which can be easily measured in a 96-well format. […]
NIH-3T3 cells are plated at a density of 2×10^6 cells in 15 cm dishes and maintained in Dulbecco's modified Eagle's medium supplemented with 10% calf serum. […] After washing with phosphate-buffered saline, ∃-galactosidase enzyme activity is determined by adding 200 μl of the chromogenic substrate (consisting of 3.5 mM o-nitrophenyl-β-D-galactopyranoside and 0.5% nonidet P-40 in phosphate buffered saline), incubating overnight at 30° C. and measuring optical density at 420 nm. The absorbance is a measure of enzyme activity, which depends on cell number and reflects a receptor-mediated cell proliferation. […]

Structure (SMILES)	Intrinsic Activity Alpha 2B [1]	also measured
S=c1[nH]cc(Cn2ccc3ccc(Cl)nc32)[nH]1 [Compound 8, 4-(6-Chloro-pyrrolo[2,3-b]pyridin-1-ylmethyl)-1,3-dihydro-imidazole-2-thione]	0.76	
S=c1[nH]cc(CN2CCCc3ccccc32)[nH]1 [Compound 11, 4-(3,4-dihydro-2H-quinolin-1-ylmethyl)-1,3-dihydro-imidazole-2-thione]	1.13	
S=c1[nH]cc(Cc2cccs2)[nH]1 [Compound 10, 4-thiophen-2-ylmethyl-1,3-dihydro-imidazole-2-thione]	1.09	
CC(c1c[nH]c(=S)[nH]1)c1coc2ccccc12 (stereo not drawn) [Compound 14, 4-(1-benzofuran-3-yl-ethyl)-1,3-dihydro-imidazole-2-thione]	1.0	% Pain Reversal ([2]; 30 μg/kg i.p.): 20%; % Pain Reversal ([2]; 300 μg/kg i.p.): 80%
S=c1[nH]cc(Cn2ccc3c(Cl)cccc32)[nH]1 [Compound 1, 4-(4-chloro-indol-1-ylmethyl)-1,3-dihydro-imidazole-2-thione]	1.17	
S=c1[nH]cc(Cn2ccc3cccc(Cl)c32)[nH]1 [Compound 4, 4-(7-chloro-indol-1-ylmethyl)-1,3-dihydro-imidazole-2-thione]	1.17	
S=c1[nH]cc(Cn2ccc3ccnc(Cl)c32)[nH]1 [Compound 7, 4-(7-chloro-pyrrolo[2,3-c]pyridin-1-ylmethyl)-1,3-dihydro-imidazole-2-thione]	1.5	
S=c1[nH]cc(Cn2ccc3ccc(Cl)c(Cl)c32)[nH]1 [Compound 6, 4-(6,7-Dichloro-indol-1-ylmethyl)-1,3-dihydro-imidazole-2-thione]	0.98	
Fc1cccc2ccn(Cc3c[nH]c(=S)[nH]3)c12 [Compound 3, 4-(7-fluoro-indol-1-ylmethyl)-1,3-dihydro-imidazole-2-thione]	1.07	sedative effect (male Sprague-Dawley rats): no sedative effect
Cc1cccc2ccn(Cc3c[nH]c(=S)[nH]3)c12 [Compound 2, 4-(7-methyl-indol-1-ylmethyl)-1,3-dihydro-imidazole-2-thione]	1.01	
S=c1[nH]cc(Cn2ccc3cccc(Br)c32)[nH]1 [Compound 5, 4-(7-Bromo-indol-1-ylmethyl)-1,3-dihydro-imidazole-2-thione]	1.01	Intrinsic Activity Alpha 2C [3]: 0.77; sedative effect (male Sprague-Dawley rats): no sedative effect
CC(c1c[nH]c(=S)[nH]1)c1ccnc2c1CCCC2 (stereo not drawn) [Compound 12, 4-[1-(5,6,7,8-tetrahydro-quinolin-4-yl)-ethyl]-1,3-dihydro-imidazole-2-thione]	0.99	
Cc1cccc(C(C)c2c[nH]c(=S)[nH]2)n1 (stereo not drawn) [Compound 9, 4-[1-(6-methyl-pyridin-2-yl)-ethyl]-1,3-dihydro-imidazole-2-thione]	1.16	
